This is an account of results in patent US4937240A, “Thienotriazolodiazepine compounds and pharmaceutical uses thereof” (Yoshitomi Pharmaceutical Industries, Ltd., priority 1988, dated 1990).

Molecules are shown by their SMILES.

Experiment [1] has as its system PAF-induced lethal shock. Kind of experiment: Effect on PAF-induced lethal shock in mice (i.v.). The format is in vivo. As to conditions: Mus musculus, male ICR mice, 80 μg/kg PAF i.v. 1 hour after intravenous administration, observed 24 hours. Here is the method: (§1) In order to determine PAF-antagonistic activity of the compounds of the present invention, the inhibitory effects of PAF-induced lethal shock in mice were investigated by oral administration and intravenous administration.
Experiment 2: Effect on PAF-induced lethal shock in mice (i.v.)
The experiment was carried out according to the method of Young et al. as described in Experiment 1. Groups of 8 to 15 male ICR mice (Charles River) weighing 25-30 g were used. 80 μg/kg of PAF (Serdary Research Lab.) solution was intravenously administered in a lateral a tail vein 1 hour after the intravenous administration of test compound ([…]). […] Results were given as ED50 (mg/kg) in Table 2.

For experiment [2], the system named is PAF-induced lethal shock. Kind of experiment: Effect on PAF-induced lethal shock in mice (p.o.). Format: in vivo. The settings on record: Mus musculus, male ICR mice, 80 μg/kg PAF i.v. 1 hour after oral administration, observed 24 hours. As for the experimental part: as §1
Experiment 1: Effect on PAF-induced lethal shock in mice (p.o.)
The experiment was carried out according to the method of Young et al. described in Prostaglandins, vol. 30, p. 545 (1985). Groups of 9 to 15 male ICR mice (Charles River) weighing 25-30 g were used. 80 μg/kg of PAF (Serdary Research Lab.) solution was intravenously administered in a lateral tail vein 1 hour after the oral administration of test compound (0.1 ml/10 g). […] Results were given as ED50 (mg/kg) in Table 1.

In experiment [3] the test system is PAF. As to conditions: literature; cited from earlier work.

In general, ED50 refers to the dose that gives a 50% effect, or the effect in half of the subjects. A lower ED50 goes with greater potency.

For `Cc1nnc2n1-c1sc(CCC(=O)N3CCOCC3)cc1C(c1ccccc1Cl)=NC2C` (centres unmarked) [A, 3-[4-(2-chlorophenyl)-6,9-dimethyl-6H-thieno[3,2-f][1,2,4]triazolo[4,3-a][1,4]diazepin-2-yl]propionic acid morpholide], the ED50 in experiment [1] is 0.021 mg/kg; in experiment [2], 0.065 mg/kg.

With `Cc1nnc2n1-c1sc3c(c1C(c1ccccc1Cl)=NC2C)CC(C(=O)N1CCOCC1)C3` (centres unmarked) [B, 5-(2-chlorophenyl)-3,4-dihydro-7,10-dimethyl-3-morpholinocarbonyl-2H,7H-cyclopenta[4,5]thieno[3,2-f][1,2,4]triazolo[4,3-a][1,4]diazepine], the ED50 in experiment [2] amounted to 0.55 mg/kg.

Regarding `Cc1nnc2n1-c1sc3c(c1C(c1ccccc1Cl)=NC2C)CC(CN1CCOCC1)C3` (centres unmarked) [C, 5-(2-chlorophenyl)-3,4-dihydro-7,10-dimethyl-3-morpholinomethyl-2H,7H-cyclopenta[4,5]thieno[3,2-f][1,2,4]triazolo[4,3-a][1,4]diazepine 1/2 hydrate], in experiment [2], the ED50 was 0.2 mg/kg.

`CCCN(CCC)C(=O)CCc1cc2c(s1)-n1c(C)nnc1C(C)N=C2c1ccccc1Cl` (centres unmarked) [E, 3-[4-(2-chlorophenyl)-6,9-dimethyl-6H-thieno[3,2-f][1,2,4]triazolo[4,3-a][1,4]diazepin-2-yl]propionic acid N,N-dipropylamide] came in with an ED50 in experiment [2] of 0.14 mg/kg.

`Cc1nnc2n1-c1sc3c(c1C(c1ccccc1Cl)=NC2)CC(CN1CCOCC1)C3` (centres unmarked) [STY 2108, 5-(2-chlorophenyl)-3,4-dihydro-10-methyl-3-morpholinomethyl-2H,7H-cyclopenta[4,5]thieno[3,2-f][1,2,4]triazolo[4,3-a][1,4]diazepine]: the “antagonistic activity on PAF” value in experiment [3] was “exhibit more potent PAF-antagonistic activity”.

On to `Cc1nnc2n1-c1sc(CCC(=O)N3CCN(CC(C)C)CC3)cc1C(c1ccccc1Cl)=NC2C` (centres unmarked) [D, 3-[4-(2-chlorophenyl)-6,9-dimethyl-6H-thieno[3,2-f][1,2,4]triazolo[4,3-a][1,4]diazepin-2-yl]propionic acid 4-isobutyl-1-piperazide], for which the ED50 in experiment [2] was 0.3 mg/kg.

For `Cc1nnc2n1-c1sc(CCC(=O)N3CCOCC3)cc1C(c1ccccc1Cl)=NC2` [4-(2-chlorophenyl)-9-methyl-6H-thieno[3,2-f][1,2,4]triazolo[] [4-(2-chlorophenyl)-9-methyl-6H-thieno[3,2-f][1,2,4]triazolo[4,3-a][1,4]diazepine-2-propionic acid morpholide], the “antagonistic activity on PAF” value in experiment [3] is given as “exhibit antagonistic activity on PAF”.

For the compound `Cc1nnc2n1-c1sc(CCC(=O)N3CCOCC3)cc1C(c1ccccc1Cl)=NC2` [WEB 2086, 3-[4-(2-chlorophenyl)-9-methyl-6H-thieno[3,2-f][1,2,4]triazolo[4,3-a][1,4]diazepin-2-yl]propionic acid morpholide, reference compound], the “antagonistic activity on PAF” value in experiment [3] is recorded as “exhibit more potent PAF-antagonistic activity”. Besides, the figures for the ED50 in experiment [1] and in experiment [2] were 0.125 mg/kg and 1.6 mg/kg, respectively.
